In article PMC3465485 (Antiviral research, 2012):
Read-outs that look alike come from different tables or passages of the source.

Tests used:
[1] = tested on: influenza A/California/07/2009 (H1N1) virus; experiment: microbe, parasite or virus in culture; conditions: H1N1, MDCK
[2] = tested on: influenza A/California/07/2009 (H1N1) virus
[3] = in vitro; conditions: dog
[4] = target: A/California/07/2009 neuraminidase (Influenza A virus (A/California/07/2009(H1N1)), UniProt C3W6G3); assay type: biochemical
[5] = 100 mg/kg/day; no reference given; cited from earlier work
[6] = tested on: MDCK cells

Row | Compound | EC50 [1] [µM] | antiviral activity in cell culture (in words) [2] | CC50 [3] [µM] | EC50 [2] [µM] | SI (CC50/EC50) [2] | other results
1 | NC12CC3CC(CC(C3)C1)C2 [Amantadine] | > 100 | no antiviral effect | > 100 | – | – | –
2 | CCC(CC)O[C@@H]1C=C(C(=O)O)C[C@H](N)[C@H]1NC(C)=O [Oseltamivir Carboxylate, Oseltamivir carboxylate] | – | – | > 100 | 0.06 ± 0.1 | – | neuraminidase inhibition (in words) [4]: slightly less potent than the other two compounds
3 | NC(=O)c1ncn([C@@H]2O[C@H](CO)[C@@H](O)[C@H]2O)n1 [Ribavirin] | 28 ± 11 | – | – | – | – | toxicity in mice (in words) [5]: begins to cause toxicity
4 | CC(N)C12CC3CC(CC(C3)C1)C2 (stereo not drawn) [Rimantadine] | > 22 | no antiviral effect | 22 ± 1 | – | 0 | –
5 | CC(=O)N[C@H]1[C@H]([C@H](O)[C@H](O)CO)OC(C(=O)O)=C[C@@H]1N=C(N)N [Zanamivir] | – | – | > 100 | 0.08 ± 0.07 | – | –
6 | Peramivir | – | – | – | 0.04 ± 0.07 | >2500 | CC50 [6]: > 100 µM; IC50 [4]: 0.0029 ± 0.0006 µM
